According to patent publication US9617256B2 (priority 2007, dated 2017):
Converted amounts (≈) assume the structure as drawn. Where two headings read alike, the source gives them in different places.

Tests used:
[1] = test system: AABA1060 (clinical isolate of Acinetobacter baumannii); experiment: MIC broth microdilution, AABA1060; type: cell-based; details: Acinetobacter baumannii, read-out: MIC AABA1060
Procedure, shortened: (§1)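 Inocula prepared from 0.5 McFarland suspensions (final 3×10^5–7×10^5 CFU/mL) were added to 2-fold drug dilution series in cation-adjusted Mueller-Hinton broth. Plates stood 18-24 hours at 35° C. under ambient air.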

[2] = test system: AECO063 (ATCC25922 bearing an acrAB mutation); experiment: microbe, parasite or virus in culture; type: cell-based, E. coli; details: Escherichia coli, ATCC25922, read-out: MIC AECO063
Procedure, shortened: as §1

[3] = test system: APAE006 in the presence of 8 micrograms per milliliter of polymyxin B nonapeptide; type: cell-based, P. aeruginosa; details: APAE006 with 8 micrograms per milliliter polymyxin B nonapeptide
Procedure, shortened: (§2)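 Growth inhibition was scored by CLSI broth microdilution using cation-adjusted Mueller-Hinton broth and a final inoculum between 3×10^5 and 7×10^5 CFU/mL, incubated 18-24 hours at 35° C.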

[4] = test system: ASAU001 (laboratory strain of S. aureus, ATCC29213); experiment: MIC broth microdilution, ASAU001; type: cell-based; details: Staphylococcus aureus, ATCC29213, read-out: MIC ASAU001
Procedure, shortened: as §1

[5] = test system: APAE006 (strain of P. aeruginosa in which all efflux pumps are inactivated); experiment: microbe, parasite or virus in culture; type: cell-based; details: Pseudomonas aeruginosa, read-out: MIC APAE006, APAE006, all efflux pumps inactivated
Procedure, shortened: as §2

APAE001 (ATCC27853) = experiment: MIC broth microdilution, APAE001; type: cell-based, P. aeruginosa; details: Pseudomonas aeruginosa, ATCC27853, read-out: MIC APAE001, APAE001 (ATCC27853)
Procedure, shortened: as §1

AECO001 (ATCC25922) = experiment: MIC broth microdilution, AECO001; type: cell-based, E. coli; details: Escherichia coli
Procedure, shortened: as §1

[6] = ATCC25922, read-out: MIC AECO001
[7] = ATCC25922, read-out: MIC AECO001 HSA AGP

SMILES	MIC [1] [µg/mL]	MIC [2] [µg/mL]	MIC APAE006 + PMBN [3]	MIC [4] [µg/mL]	MIC [5] [µg/mL]	MIC (APAE001 (ATCC27853)) [µg/mL]	MIC (AECO001 (ATCC25922); [6]) [µg/mL]	MIC (AECO001 (ATCC25922); [7]) [µg/mL]
CC(C)(O)[C@H](NC(=O)c1ccc(C#CC#Cc2ccsc2)cc1)C(=O)NO [Example 88-14]	< 2	< 2	A (MIC's of 2.0 μg/mL or less = A)	16 to 64 (≈ 41.8 to 167 µM)	< 2	< 2	< 2	2 to 16 (≈ 5.23 to 41.8 µM)
CC(C)(N)[C@@H](NC(=O)c1ccc(C#Cc2ccc(CNC3CC3)cc2)cc1)C(=O)NO [Compound 121-2]	16 to 64 (≈ 38 to 152 µM)	2 to 16 (≈ 4.76 to 38 µM)	A (MIC's of 2.0 μg/mL or less = A)	16 to 64 (≈ 38 to 152 µM)	< 2	16 to 64 (≈ 38 to 152 µM)	2 to 16 (≈ 4.76 to 38 µM)	16 to 64 (≈ 38 to 152 µM)
NC[C@H](NC(=O)C#Cc1ccc(C#CCN2CCOCC2)cc1)C(=O)NO [Example 137-10]	> 64	> 64	C (MIC's of greater than 16.0 μg/mL to 64.0 μg/mL = C)	> 64	16 to 64 (≈ 43.2 to 173 µM)	> 64	> 64	> 64
CC(C)OCc1ccc(C#Cc2ccc(C(=O)N[C@H](C(=O)NO)[C@@H](C)N)cc2)cc1 [Example 124-2]	2 to 16 (≈ 4.88 to 39.1 µM)	< 2	A (MIC's of 2.0 μg/mL or less = A)	16 to 64 (≈ 39.1 to 156 µM)	< 2	2 to 16 (≈ 4.88 to 39.1 µM)	< 2	2 to 16 (≈ 4.88 to 39.1 µM)
CC(C)(N)[C@@H](NC(=O)c1ccc(C#CC#CC2CC2)cc1)C(=O)NO [Example 91-11]	16 to 64 (≈ 47.1 to 189 µM)	< 2	A (MIC's of 2.0 μg/mL or less = A)	16 to 64 (≈ 47.1 to 189 µM)	< 2	2 to 16 (≈ 5.89 to 47.1 µM)	< 2	16 to 64 (≈ 47.1 to 189 µM)
CC(C)(N)[C@H](NC(=O)c1ccc(C#CC#Cc2ccc(C(F)(F)F)cc2)cc1)C(=O)NO [Example 82-26]	2 to 16 (≈ 4.51 to 36.1 µM)	< 2	A (MIC's of 2.0 μg/mL or less = A)	2 to 16 (≈ 4.51 to 36.1 µM)	2 to 16 (≈ 4.51 to 36.1 µM)	2 to 16 (≈ 4.51 to 36.1 µM)	< 2	16 to 64 (≈ 36.1 to 144 µM)
C[C@@H](N)[C@H](NC(=O)c1ccc(C#CC(O)c2ccc(CO)cc2)cc1)C(=O)NO (stereo partly drawn) [Example 137-18]	16 to 64 (≈ 40.3 to 161 µM)	16 to 64 (≈ 40.3 to 161 µM)	B (MIC's of greater than 2.0 μg/mL to 16.0 μg/mL = B)	16 to 64 (≈ 40.3 to 161 µM)	2 to 16 (≈ 5.03 to 40.3 µM)	16 to 64 (≈ 40.3 to 161 µM)	16 to 64 (≈ 40.3 to 161 µM)	16 to 64 (≈ 40.3 to 161 µM)
CC(C)(O)[C@H](NC(=O)c1ccc(C#CC#CCC2CCCC2)cc1)C(=O)NO [Example 91-20]	2 to 16 (≈ 5.23 to 41.8 µM)	< 2	A (MIC's of 2.0 μg/mL or less = A)	16 to 64 (≈ 41.8 to 167 µM)	2 to 16 (≈ 5.23 to 41.8 µM)	2 to 16 (≈ 5.23 to 41.8 µM)	< 2	2 to 16 (≈ 5.23 to 41.8 µM)
C[C@@H](N)[C@H](NC(=O)c1ccc(C#C/C=C/c2ccncc2)cc1)C(=O)NO [Example 106-3]	16 to 64 (≈ 43.9 to 176 µM)	< 2	A (MIC's of 2.0 μg/mL or less = A)	16 to 64 (≈ 43.9 to 176 µM)	< 2	< 2	< 2	16 to 64 (≈ 43.9 to 176 µM)
CC(C)(O)[C@H](NC(=O)c1ccc(C#CC#Cc2ccc(N)cc2)cc1)C(=O)NO [Example 82-17]	< 2	< 2	A (MIC's of 2.0 μg/mL or less = A)	2 to 16 (≈ 5.11 to 40.9 µM)	< 2	< 2	< 2	< 2
CC(C)(N)[C@H](NC(=O)c1ccc(C#CC#Cc2cccc(F)c2)cc1)C(=O)NO [Example 82-27]	2 to 16 (≈ 5.08 to 40.7 µM)	< 2	A (MIC's of 2.0 μg/mL or less = A)	16 to 64 (≈ 40.7 to 163 µM)	< 2	2 to 16 (≈ 5.08 to 40.7 µM)	< 2	2 to 16 (≈ 5.08 to 40.7 µM)
C[C@@H](N)[C@H](NC(=O)c1ccc(C#CC2CC2c2ccccc2)cc1)C(=O)NO (stereo partly drawn) [Example 134-2]	2 to 16 (≈ 5.3 to 42.4 µM)	2 to 16 (≈ 5.3 to 42.4 µM)	A (MIC's of 2.0 μg/mL or less = A)	16 to 64 (≈ 42.4 to 170 µM)	< 2	2 to 16 (≈ 5.3 to 42.4 µM)	2 to 16 (≈ 5.3 to 42.4 µM)	16 to 64 (≈ 42.4 to 170 µM)
